Experiments:
[1] = biological target: T1, human Cav3.2 channel (Homo sapiens, UniProt O95180); test: Electrophysiological evaluation, automated whole-cell patch clamp of Cav3.2 channel current (Pharmacological Test 2); format: cell-based; conditions: for inhibition at 0.3 µM: read-out: Cav3.2 channel current inhibition rate in test compound of 0.3 μM (holding potential of −80 mV) (%); for inhibition at 3 µM: 3 μM test compound, holding potential −100 mV, read-out: Cav3.2 channel current inhibition rate in test compound of 3 μM (holding potential of −100 mV) (%)
T1 construct: expressed in transfected cells
T1 sequence (O95180 whole entry): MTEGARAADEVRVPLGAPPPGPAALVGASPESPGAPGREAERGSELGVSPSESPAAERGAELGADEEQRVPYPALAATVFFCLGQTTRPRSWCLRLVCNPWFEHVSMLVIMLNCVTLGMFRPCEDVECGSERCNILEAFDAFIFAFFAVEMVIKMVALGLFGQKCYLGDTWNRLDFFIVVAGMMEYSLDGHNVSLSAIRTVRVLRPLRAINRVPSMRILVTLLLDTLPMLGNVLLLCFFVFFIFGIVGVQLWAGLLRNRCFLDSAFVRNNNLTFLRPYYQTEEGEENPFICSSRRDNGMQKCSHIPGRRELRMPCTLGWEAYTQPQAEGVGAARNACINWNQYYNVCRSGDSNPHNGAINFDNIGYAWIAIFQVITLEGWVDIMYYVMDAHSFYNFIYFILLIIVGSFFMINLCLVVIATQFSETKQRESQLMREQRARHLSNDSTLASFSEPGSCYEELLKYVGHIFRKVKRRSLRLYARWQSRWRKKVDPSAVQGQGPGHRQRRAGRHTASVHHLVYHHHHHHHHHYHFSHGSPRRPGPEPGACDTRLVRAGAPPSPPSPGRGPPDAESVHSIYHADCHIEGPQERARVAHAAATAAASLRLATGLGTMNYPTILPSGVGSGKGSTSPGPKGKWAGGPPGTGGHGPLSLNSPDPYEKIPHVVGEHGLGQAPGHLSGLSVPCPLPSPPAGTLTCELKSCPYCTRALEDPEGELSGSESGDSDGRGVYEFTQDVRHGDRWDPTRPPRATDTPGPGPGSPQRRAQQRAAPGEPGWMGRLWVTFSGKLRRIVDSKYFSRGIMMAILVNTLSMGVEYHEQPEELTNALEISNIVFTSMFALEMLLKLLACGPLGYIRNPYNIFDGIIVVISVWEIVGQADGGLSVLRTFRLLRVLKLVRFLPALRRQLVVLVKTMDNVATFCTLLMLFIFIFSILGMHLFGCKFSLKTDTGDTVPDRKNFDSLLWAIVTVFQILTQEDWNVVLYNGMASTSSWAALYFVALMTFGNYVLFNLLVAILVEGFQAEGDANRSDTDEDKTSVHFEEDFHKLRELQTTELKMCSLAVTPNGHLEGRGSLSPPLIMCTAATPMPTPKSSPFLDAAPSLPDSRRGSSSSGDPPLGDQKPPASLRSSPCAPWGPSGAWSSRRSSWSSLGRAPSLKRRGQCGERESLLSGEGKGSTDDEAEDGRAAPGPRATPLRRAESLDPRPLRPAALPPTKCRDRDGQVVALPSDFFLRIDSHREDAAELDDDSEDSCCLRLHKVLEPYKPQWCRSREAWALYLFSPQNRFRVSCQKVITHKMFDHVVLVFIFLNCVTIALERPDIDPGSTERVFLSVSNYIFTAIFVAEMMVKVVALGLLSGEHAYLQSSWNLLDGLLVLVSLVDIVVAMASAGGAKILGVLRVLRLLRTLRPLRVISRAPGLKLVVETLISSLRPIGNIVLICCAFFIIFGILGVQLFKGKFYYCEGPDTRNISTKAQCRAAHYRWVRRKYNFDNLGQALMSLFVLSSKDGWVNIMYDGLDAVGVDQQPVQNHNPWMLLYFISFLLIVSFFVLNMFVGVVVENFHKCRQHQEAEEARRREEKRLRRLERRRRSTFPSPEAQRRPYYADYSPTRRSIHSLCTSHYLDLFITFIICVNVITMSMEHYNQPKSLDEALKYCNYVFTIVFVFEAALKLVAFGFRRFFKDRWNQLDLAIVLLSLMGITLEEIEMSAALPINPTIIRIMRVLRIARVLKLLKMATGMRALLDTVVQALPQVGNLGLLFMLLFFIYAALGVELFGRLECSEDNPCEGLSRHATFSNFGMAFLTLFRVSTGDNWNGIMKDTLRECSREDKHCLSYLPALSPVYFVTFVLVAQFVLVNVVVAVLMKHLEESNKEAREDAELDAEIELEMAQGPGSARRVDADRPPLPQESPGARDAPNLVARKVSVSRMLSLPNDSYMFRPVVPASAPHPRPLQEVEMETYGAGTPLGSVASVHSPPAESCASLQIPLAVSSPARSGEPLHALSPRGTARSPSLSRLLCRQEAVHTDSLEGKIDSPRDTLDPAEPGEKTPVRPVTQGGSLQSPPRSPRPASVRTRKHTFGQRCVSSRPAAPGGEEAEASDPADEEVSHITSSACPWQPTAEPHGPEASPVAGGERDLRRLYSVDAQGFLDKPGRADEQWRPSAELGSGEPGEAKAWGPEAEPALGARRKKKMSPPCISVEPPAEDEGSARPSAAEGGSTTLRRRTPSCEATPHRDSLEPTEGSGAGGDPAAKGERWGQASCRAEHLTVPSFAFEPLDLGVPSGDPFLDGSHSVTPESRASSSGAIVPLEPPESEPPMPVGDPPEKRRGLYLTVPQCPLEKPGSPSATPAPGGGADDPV
Method: The human Cav3.2 channel expressing stable cell line prepared by the test method (1) of Example 36 was seeded in a 10-cm dish using a DMEM medium containing 10% FBS, followed by culturing 37° C. for 24 hours under a 5% CO2 condition. The cells were detached using Accutase, and suspended in ice-cooled extracellular fluid for use. A Cav3.2 channel current was measured using an automated patch clamp system (Port-a-Patch; Nanion Technologies, EPC-10; HEKA Elektronik GmbH, Patchmaster; HEKA Elektronik GmbH) and buffers shown below, by a whole-cell patch-clamp method. The measurement of the Cav3.2 channel current was performed at room temperature, a measurement condition was a holding potential of −80 mV, a depolarization potential was −20 mV, a depolarization time was 100 msec, and a depolarization frequency was 10 sec. The Cav3.2 channel current was a peak value of an inward current observed at the time of depolarization to −20 mV.
The test compound was obtained by diluting a DMSO solution 1000 times with extracellular fluid to prepare a solution having a target concentration. The test compound was applied using an external perfusion system (Nanion Technologies) until the Cav3.2 channel current was stabilized, and a maximum of five concentrations from the low concentration side were cumulatively applied. An inhibition rate of the test compound was calculated from a change rate between a current value immediately before application of the test compound and the Cav3.2 channel current after application of the test compound (in a condition of holding potential of −80 mV, a concentration of the test compound was 0.3 μM, and in a condition of holding potential of −100 mV, a concentration of the test compound was 3 μM).
Extracellular fluid: 135 mM NaCl, 4 mM KCl, 1 mM MgCl2, 5 mM CaCl2, 5 mM D-Glucose, 10 mM HEPES, pH 7.4
Electrode internal fluid: 10 mM NaCl, 10 mM HEPES, 50 mM CsCl, 60 mM Cs-Fluoride, 20 mM EGTA, pH 7.2

[2] = biological target: T1, human Cav3.2 channel; test: Intracellular calcium concentration measurement in human Cav3.2 channel expressing stable cell line (Pharmacological Test 1); format: cell-based; conditions: HEK293 cells stably expressing human Cav3.2, Fluo-4 AM fluorescence, KCl stimulation; read-out: Cav3.2 channel inhibitory action
Source text: (1) Construction of Human Cav3.2 Channel Expressing Stable Cell Line
A sequence in which a HindIII site and a kozak sequence (GCCACC) was provided on a 5′ side of a human Cav3.2 channel open reading frame (ORF) gene and a KpnI site was provided on a 3′ side thereof was incorporated into pcDNA3.1(+) (Thermo Fisher Scientific #V790-20), and the resultant was transfected into a HEK293 cell (ATCC No. CRL-1573) according to a protocol of FuGENE (registered trademark) HD Transfection Reagent (Promega #E2311).
(2) Method of Measuring Intracellular Calcium Concentration
The human Cav3.2 channel expressing stable cell line prepared by the test method (1) was seeded in a 96-well plate using a Dulbecco's modified Eagle's medium (DMEM medium) containing 10% fetal bovine serum (FBS), followed by culturing 37° C. for 48 hours under a 5% CO2 condition. Thereafter, the medium was removed, and each well washed with an A buffer was treated with 80 μL of a fluorescent dye solution containing a liquid mixture of 22 μg of a calcium fluorescent indicator Fluo-4 AM (Dojindo Molecular Technologies, Inc., #F311), 20 μL of dimethyl sulfoxide (DMSO), 1 μL of 10% Pluronic F-127 (Thermo Fisher Scientific #P6866), and 4 mL of the A buffer. After being left to stand for 45 minutes at room temperature under a light shielding condition, the cells were washed with a B buffer. In DMSO having the same final concentration as the test compound as a negative control, and the test compound dissolved in DMSO to have a final concentration of 0.1%, each test compound concentration solution containing the B buffer was added to each well. The cells were left to stand for additional 15 minutes at room temperature under a light shielding condition, and were measured using microplate reader EnVision (PerkinElmer Co., Ltd.) by the following method. First, after measuring background fluorescence in each well, an ionophore was added, and baseline fluorescence was measured. Thereafter, B buffer containing added KCl at a concentration of 83.8 mM was added to each well, and an increase in fluorescence due to calcium influx caused by the stimulation was measured for 10 seconds. Inhibition percentage was calculated from the maximum fluorescence increase value from the baseline, and an IC50 value was calculated by plotting a logarithmic value of the test compound concentration and inhibition activity. The measurement was performed by observing fluorescence of 510 nm emitted when the cells were irradiated with excitation light of 485 nm.
A buffer: 140 mM NaCl, 5 mM KCl, 1 mM MgCl2, 0.5 mM CaCl2, 10 mM Glucose, 10 mM HEPES, pH 7.3
B buffer: potassium equilibrium potential: −92 mV

[3] = system: mouse partial sciatic nerve ligation (PSNL) model; test: Mechanical allodynia in mouse partial sciatic nerve ligation (PSNL) model, von Frey filament test (Pharmacological Test 3); format: in vivo; conditions: 30 mg/kg orally administered
Method: A mouse PSNL model was prepared according to a method of Seltzer et al. A mouse was anesthetized by inhalation with isoflurane. A femoral region of the mouse was shaved and disinfected with isodine. Skin on a femur of the mouse was incised, fascia just below the skin was cut off, and muscle heads of musculus biceps femoris were divided. After confirmation of sciatic nerves just below the muscle, and the sciatic nerves were separated without damage. ½ to ⅓ of the sciatic nerve was penetrated by a needle with 8-0 silk and ligated. The skin was sutured and the mouse was reared for about 7 days. In surgery of a sham control mouse, only confirmation of the sciatic nerves was performed and then the skin was sutured.
A pain threshold was measured after moving the mice to a cage for measurement and waiting for the exploratory behavior to disappear. Regarding the pain threshold (paw withdrawal filament ((g)), soles of the mice were stimulated with von Frey filaments (Sttoelting Co.: TOUCH-TEST SENSORY EVLUATOR) having different stimulation intensities, and the presence or absence of avoidance response was observed. A 50% threshold was calculated by an up down method with reference to a method of Chaplan et al. (Quantitative assessment of tactile allodynia in the rat paw. J neurosci Methods, 53, 1994, 55 to 63). […]

[4] = 0.3 μM test compound, holding potential −80 mV, depolarization to −20 mV

SMILES | inhibition at 0.3 µM [1, 4] [%] | IC50 [2] [nM] | inhibition at 3 µM [1] [%] | Cav3.2 channel current inhibition rate in test compound of 0.3 μM (holding potential of −80 mV) (%) ([1]; 0.3 μM test compound, holding potential −80 mV, depolarization to −20 mV, 0.3 µM) | mechanical allodynia (pain threshold, von Frey filament test) compared to the vehicle group [3]
O=C(NC1(C(=O)Nc2ccc(OC(F)(F)F)cc2)CC1)[C@H]1C[C@@H]1c1nc2ccccc2[nH]1 [Example 24, 1-((1S, 2S)-2-(1H-Benzo[d]imidazol-2-yl)cyclopropane-1-carboxamido)-N-(4-(trifluoromethoxy)phenyl) cyclopropane-1-carboxamide] | 68 | ≤ 100 | – | – | –
CC(NC(=O)C1CC1c1nc2ccccc2[nH]1)C(=O)Nc1ccc(C(F)(F)F)cc1 (single isomer, unassigned) [Example 4A, Trans-2-(1H-benzo[d]imidazol-2-yl)-N-(1-oxo-1-((4-(trifluoromethyl)phenyl)amino)propan-2-yl) cyclopropane-1-carboxamide] | 43 | 100 to 1000 | 38 | – | –
CC(NC(=O)C1CC1c1nc2ccccc2[nH]1)C(=O)Nc1ccc(C(F)(F)F)cc1 (single isomer, unassigned) [Example 4B, Trans-2-(1H-benzo[d]imidazol-2-yl)-N-(1-oxo-1-((4-(trifluoromethyl)phenyl)amino)propan-2-yl) cyclopropane-1-carboxamide] | – | 100 to 1000 | – | 23 | –
CCCc1ccc(NC(=O)C(C)NC(=O)C2CC2c2nc3ccccc3[nH]2)cc1 (single isomer, unassigned) [Example 1A, Trans-2-(1H-benzo[d]imidazol-2-yl)-N-(1-oxo-1-((4-propylphenyl)amino)propan-2-yl) cyclopropane-1-carboxamide] | 86 | 100 to 1000 | – | – | –
CC(NC(=O)C1CC1c1nc2ccccc2[nH]1)C(=O)Nc1ccc(C(F)(F)F)nc1 (single isomer, unassigned) [Example 5A, Trans-2-(1H-benzo[d]imidazol-2-yl)-N-(1-oxo-1-((6-(trifluoromethyl)pyridin-3-yl)amino)propan-2-yl) cyclopropane-1-carboxamide] | 74 | 100 to 1000 | 32 | – | statistically significantly suppressed
C[C@@H](NC(=O)C1CC1c1nc2ccccc2[nH]1)c1cnc(OCC(F)(F)F)cn1 (stereo partly drawn) [RQ-00311651, reference compound] | 17 | – | 14 | – | –
O=C(NC1(C(=O)Nc2ccc(C(F)(F)F)cc2)CC1)[C@H]1C[C@@H]1c1nc2ccccc2[nH]1 [Example 26, 1-((1S, 2S)-2-(1H-Benzo[d]imidazol-2-yl)cyclopropane-1-carboxamido)-N-(4-(trifluoromethyl)phenyl) cyclopropane-1-carboxamide] | 84 | ≤ 100 | – | – | statistically significantly suppressed
O=C(CNC(=O)[C@@H]1C[C@H]1c1nc2ccccc2[nH]1)Nc1ccc(C(F)(F)F)cc1 (relative stereo) [Example 20, Trans-2-(1H-benzo[d]imidazol-2-yl)-N-(2-oxo-2-((4-(trifluoromethyl)phenyl)amino)ethyl) cyclopropane-1-carboxamide] | 39 | 100 to 1000 | 32 | – | –
CC(NC(=O)C1CC1c1nc2ccccc2[nH]1)C(=O)Nc1cnc(Br)cn1 (single isomer, unassigned) [Example 18A, Trans-2-(1H-benzo[d]imidazol-2-yl)-N-(1-((5-bromopyrazin-2-yl)amino)-1-oxopropan-2-yl) cyclopropane-1-carboxamide] | 46 | 100 to 1000 | – | – | –
O=C(NC1(C(=O)Nc2cccc(C(F)(F)F)c2)CC1)[C@H]1C[C@@H]1c1nc2ccccc2[nH]1 [Example 22, 1-((1S, 2S)-2-(1H-Benzo[d]imidazol-2-yl)cyclopropane-1-carboxamido)-N-(3-(trifluoromethyl)phenyl) cyclopropane-1-carboxamide] | 95 | ≤ 100 | – | – | –
O=C(NC1(C(=O)Nc2ccc(C(F)(F)F)cc2)CC1)[C@@H]1C[C@H]1c1nc2ccccc2[nH]1 (relative stereo) [Example 21, Trans-1-(2-(1H-benzo[d]imidazol-2-yl)cyclopropane-1-carboxamido)-N-(4-(trifluoromethyl)phenyl) cyclopropane-1-carboxamide] | 51 | 100 to 1000 | 41 | – | –
CC(NC(=O)C1CC1c1nc2ccccc2[nH]1)C(=O)Nc1ccc(C(C)(C)C)cc1 (single isomer, unassigned) [Example 7A, Trans-2-(1H-benzo[d]imidazol-2-yl)-N-(1-((4-(tert-butyl)phenyl)amino)-1-oxopropan-2-yl) cyclopropane-1-carboxamide] | 30 | 100 to 1000 | – | – | –

— patent US11370761B2, “Voltage-dependent T-type calcium channel inhibitor” (Nippon Chemiphar Co., Ltd., priority 2017, dated 2022)
